Assay [1] concerns the target T1, human EGFR (d746-750/T790M/C797S) (Homo sapiens, UniProt P00533, C797S/DEL746-750/T790M).
T1 construct: human EGFR (d746-750/T790M/C797S) (668-end, SignalChem); purchased SignalChem
As to the kind of experiment: EGFR C797S enzyme inhibition activity (ADP-Glo kinase assay). It is filed as biochemical. The following applies: purified enzyme 3 ng, ATP 5 μM, 25° C., 1 hour, luminescence; read-out: EGFR DTC Enzyme IC50. How it is done:
<Experimental Example 1> Evaluation of EGFR C797S Enzyme Inhibition Activity
The compounds according to the present invention were reacted together with purified human EGFR (d746-750/T790M/C797S) (668-end, SignalChem) enzyme and a specific substrate and evaluated for enzyme inhibitory activity as described below. The reaction buffer consisted of 40 mM Tris-HCl pH 7.4, 20 mM MgCl2, 0.5 mg/ml BSA, and 50 μM DTT, and all reactions of the test substances were performed in reaction buffers. The compounds were serially diluted in 12 steps from a 10 mM DMSO stock, and the enzyme activity was measured at the final compound concentrations of 10, 3, 1, 0.3, 0.1, 0.03, 0.01, 0.003, 0.001, 0.0003, 0.0001, and 0 μM. In the assay, human EGFR (d746-750/T790M/C797S) (3 ng) enzyme was reacted with purified ATP (5 μM) and enzyme substrate (0.2 μg) at 25° C. for 1 hour, and the enzyme activity was determined using the in vitro ADP-Glo™ kinase assay (Promega). The enzyme activity inhibition was measured via luminescence by reacting the enzyme activity reaction solution, ADP-Glo reaction solution, and enzyme activity detection solution in a 2:2:1 ratio. Based on the luminescence of the enzyme activity of the solvent control group that was not treated with the compound, the degree of the enzyme activity inhibition depending on the treatment concentration of each compound was calculated, wherein the concentration of each compound that inhibited the enzyme activity by 50% was determined as the IC50 (nM) value, which was obtained using GraphPad Prism 8.4.3 (GraphPad software Inc., San Diego).
On the technique in general: In ADP-Glo the light output rises with the ADP produced.

The test system of assay [2] is Ba/F3 expressing EGFR Del19/T790M/C797S mutations. As to the kind of experiment: Inhibitory activity on proliferation of Ba/F3 cell overexpressing EGFR C797S (Cell Titer-Glo). It counts as cell-based. The following applies: Mus musculus, BaF3; 72 hours treatment, cell growth rate vs control; read-out: Ba/F3 (EGFR DTC) GI50. Here is the method:
<Experimental Example 2> Evaluation of Inhibitory Activity on Proliferation of Ba/F3 Cell Overexpressing EGFR C797S
The following experiments were performed to evaluate the inhibitory activity of the compounds according to the present invention on the proliferation of Ba/F3 expressing EGFR Del19/T790M/C797S mutations.
Ba/F3 cells were cultured in RPMI-1640 medium supplemented with 10% fetal bovine serum (FBS), and 3000 cells were seeded into each well of a white clear bottom 96 well plate (Corning) 24 hours prior to compound treatment. The compounds were diluted in dimethyl sulfoxide (3-fold dilution, total of 12 concentrations) and injected at 1 μl each so that the final concentration was […] to 5 μM. After 72 hours post treatment with compounds, living cells were reacted in a 37° C., CO2 incubator for […], followed by 10 minutes at room temperature using Cell Titer-Glo luminescent cell-viability reagent (Promega), and the luminescence intensity thereof was measured using a reader (SynergyNeo2, Biotek). The result values were calculated as a cell growth rate (%) compared to the control group. GI50 values were calculated using the GraphPad Prism version 8.4.3 (GraphPad software Inc., San Diego) program.
(In general: ATP-based viability assays read luminescence as a measure of living cells.)

Bounds are passed on as bounds.

T1 sequence (P00533 with tags, fused parts or gaps DEL746-750/T790M/C797S): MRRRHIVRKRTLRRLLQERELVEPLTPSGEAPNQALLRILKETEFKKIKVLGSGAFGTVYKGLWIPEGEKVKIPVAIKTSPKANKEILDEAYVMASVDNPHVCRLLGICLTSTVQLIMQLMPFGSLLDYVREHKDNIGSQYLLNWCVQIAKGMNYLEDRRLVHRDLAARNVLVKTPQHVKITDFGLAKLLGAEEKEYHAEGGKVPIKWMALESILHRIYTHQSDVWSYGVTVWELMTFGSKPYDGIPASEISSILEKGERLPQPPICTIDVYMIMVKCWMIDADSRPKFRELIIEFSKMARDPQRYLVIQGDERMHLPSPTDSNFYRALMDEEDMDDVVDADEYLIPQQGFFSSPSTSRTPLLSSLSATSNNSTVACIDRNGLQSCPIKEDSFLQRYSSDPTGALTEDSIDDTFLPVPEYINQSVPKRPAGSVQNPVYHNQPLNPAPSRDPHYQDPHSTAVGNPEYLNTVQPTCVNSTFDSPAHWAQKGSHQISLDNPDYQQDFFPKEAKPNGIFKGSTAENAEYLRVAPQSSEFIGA

One may read the IC50 as the concentration at which inhibition is half-maximal. Regarding `C[C@H]1CCOc2c(cnn2C)-c2nccc(n2)Nc2cc(c(C(=O)NC3CCCC(C(F)(F)F)C3)cn2)N1` (stereo partly drawn) [Example 119, (6S)-1^1,6-dimethyl-N-(3-(trifluoroemthyl)cy-clohexyl)-1^1H-9-oxa-3,5-diaza-2(2,4)-pyrimidina-4(2,4)-pyridina-1(4,5)-pyrazolacyclo-nonaphane-4^5-carboxamide], in assay [1], the half-inhibitory concentration (IC50) is under 50 nM. Further, in assay [2], the GI50 is under 500 nM.
`CC(C)Nc1cc(Nc2ccnc(-c3cnn(S(=O)(=O)C4CC4)c3)n2)ncc1C(=O)NCCN1CCOCC1` [Example 83, 6-((2-(1-(cyclopropylsulfonyl)-1H-pyrazol-4-yl)pyrimidin-4-yl)amino)-4-(isopropylamino)-N-(2-morpholinoethyl)nico-tinamide]: the half-inhibitory concentration (IC50) in assay [1] was under 50 nM. Also, the GI50 in assay [2] was under 500 nM.
Regarding `CC(C)Nc1cc(Nc2ccnc(-c3cnn(S(=O)(=O)C4CC4)c3)n2)ncc1C(=O)NC1CC(F)(F)C1` [Example 99, 6-((2-(1-(cyclopropylsulfonyl)-1H-pyrazol-4-yL)pyrimidin-4-yl)amino)-N-(3,3-difluorocyclobutyl)-4-(isopropylamino)nico-tinamide], the half-maximal inhibitory concentration (IC50) in assay [1] was in the range of 50 to 500 nM. For the same compound, the GI50 in assay [2] is under 500 nM.
For `CO[C@H]1CCN(c2nccc(Nc3cc(NC(C)C)c(C(=O)NCCc4ccccc4)cn3)n2)C[C@H]1F` (relative stereo) [Example 96, 6-((2-(cis-3-fluoro-4-methoxypiperidin-1-yl)pyrimidin-4-yl)amino)-4-(isopropylamino)-N-phenethylnicotinamide], in that order: 50 to 500 nM and 500 to 5000 nM.
In the case of `CC(C)Nc1cc(Nc2ccnc(-c3cnn(S(=O)(=O)C4CC4)c3)n2)ncc1C(=O)NC(CCN(C)C)c1ccccc1` (stereo not drawn) [Example 53, 6-((2-(1-(cyclopropylsulfonyl)-1H-pyrazol-4-yl)pyrimidin-4-yl)amino)-N-(3-(dimethylamino)-1-phenylpropyl)-4-(isopropylamino)nico-tinamide], the half-inhibitory concentration (IC50) in assay [1] is under 50 nM. In assay [2], the GI50 lay within 500 to 5000 nM.
`CC(C)Nc1cc(Nc2ccnc(-c3cnn(S(=O)(=O)C4CC4)c3)n2)ncc1C(=O)NC(CN(C)C)c1ccccc1` (stereo not drawn) [Example 70, 6-((2-(1-(cyclopropylsulfonyl)-1H-pyrazol-4-yl)pyrimidin-4-yl)amino)-N-(2-(dimethylamino)-1-phenylethyl)-4-(isopropylamino)nico-tinamide]: in assay [1], the concentration for half-maximal inhibition (IC50) is under 50 nM. The GI50 in assay [2] lay within 500 to 5000 nM.
The matching figures for `CC(C)Nc1cc(Nc2ccnc(-c3cnn(S(=O)(=O)C4CC4)c3)n2)ncc1C(=O)NCCC(F)(F)F` [Example 82, 6-((2-(1-(cyclopropylsulfonyl)-1H-pyrazol-4-yl)pyrimidin-4-yl)amino)-4-(isopropylamino)-N-(3,3,3-trifluoropropyl)nico-tinamide]: under 50 nM and under 500 nM.
On to `CO[C@H]1CCN(c2nccc(Nc3cc(NC4CCNC4)c(C(=O)N4CC(CS(C)(=O)=O)C4)cn3)n2)C[C@H]1F` (relative stereo) [Example 15, (6-((2-(cis-3-fluoro-4-methoxypiperidin-1-yl)pyrimidin-4-yl)amino)-4-(pyrrolidin-3-ylamino)pyridin-3-yl)(3-((methylsulfonyl)meth-yl)azetidin-1-yl)methanone], for which, in assay [1], the IC50 was 50 to 500 nM. For the same compound, the GI50 in assay [2] was 500 to 5000 nM.
For `CC(C)Nc1cc(Nc2ccnc(-c3cnn(S(=O)(=O)C4CC4)c3)n2)ncc1C(=O)NC1CCN(C(=O)OC(C)(C)C)C1` (stereo not drawn) [Example 47, tert-butyl 3-(6-((2-(1-(cyclopropylsulfonyl)-1H-pyrazol-4-yl)pyrimidin-4-yl)amino)-4-(isopropylamino)nico-tinamido)pyrrolidine-1-carboxylate], the IC50 in assay [1] fell in the range of 50 to 500 nM. Also, in assay [2], the GI50 lay within 500 to 5000 nM.
For `CC(C)Nc1cc(Nc2ccnc(-c3cnn(S(=O)(=O)C4CC4)c3)n2)ncc1C(=O)NCCCN(C)C(=O)OC(C)(C)C` [Example 58, tert-butyl (3-(6-((2-(1-(cyclopropylsulfonyl)-1H-pyrazol-4-yl)pyrimidin-4-yl)amino)-4-(isopropylamino)nico-tinamido)propyl)(meth-yl)carbamate], in assay [1], the half-maximal inhibitory concentration (IC50) is 50 to 500 nM. For the same compound, the GI50 in assay [2] lay in the range of 500 to 5000 nM.
In the case of `CC(C)Nc1cc(Nc2ccnc(-c3cnn(S(=O)(=O)C4CC4)c3)n2)ncc1C(=O)NCCCC(F)(F)F` [Example 81, 6-((2-(1-(cyclopropylsulfonyl)-1H-pyrazol-4-yl)pyrimidin-4-yl)amino)-4-(isopropylamino)-N-(4,4,4-trifluorobutyl)nicotin-amide], the IC50 in assay [1] was under 50 nM. Further, the GI50 in assay [2] was under 500 nM.
As for `C[C@H]1CCOc2c(cnn2C)-c2cc(ccn2)Nc2ncc(C(=O)NCCC(F)(F)F)c(n2)N1` [Example 115, (S)-1^1,6-dimethyl-N-(3,3,3-trifluoropropyl)-1^1H-9-oxa-3,5-diaza-4(2,4)-pyrimidina-2(2,4)-pyridina-1(4,5)-pyrazolacyclo-nonaphane-4^5-carboxamide], in assay [1], the IC50 is under 50 nM. Besides, in assay [2], the GI50 was under 500 nM.
Take `CC(C)Nc1cc(Nc2ccnc(-c3cnn(S(=O)(=O)C4CC4)c3)n2)ncc1C(=O)Nc1cc(CN2CCN(C)CC2)cc(C(F)(F)F)c1` [Example 25, 6-((2-(1-(cyclopropylsulfonyl)-1H-pyrazol-4-yl)pyrimidin-4-yl)amino)-4-(isopropylamino)-N-(3-((4-methylpiperazin-1-yl)methyl)-5-(trifluoromethyl)phe-nyl)nicotinamide]: in assay [1], the IC50 fell in the range of 50 to 500 nM. Further, the GI50 in assay [2] was 500 to 5000 nM.
Turning to `CC(C)Nc1cc(Nc2ccnc(-c3cnn(S(=O)(=O)C4CC4)c3)n2)ncc1C(=O)NCC1CCCC1` [Example 56, N-(cyclopentylmethyl)-6-((2-(1-(cyclopropylsulfonyl)-1H-pyrazol-4-yl)pyrimidin-4-yl)amino)-4-(isopropylamino)-nicotinamide], the IC50 in assay [1] lay within 50 to 500 nM. Also, in assay [2], the GI50 lay within 500 to 5000 nM.
With `CC(C)Nc1cc(Nc2ccnc(-c3cnn(S(=O)(=O)C4CC4)c3)n2)ncc1C(=O)NC1CCS(=O)(=O)C1` (stereo not drawn) [Example 36, 6-((2-(1-(cyclopropylsulfonyl)-1H-pyrazol-4-yl)pyrimidin-4-yl)amino)-N-(1,1-dioxydotetrahydrothi-ophen-3-yl)-4-(isopropylamino)nico-tinamide], the IC50 in assay [1] is under 50 nM. For the same compound, the GI50 in assay [2] lay in the range of 500 to 5000 nM.
`CO[C@H]1CCN(c2nccc(Nc3cc(NC4CCCC4)c(C(=O)N4CC(CS(C)(=O)=O)C4)cn3)n2)C[C@H]1F` (relative stereo) [Example 13, (4-(cyclopentylamino)-6-((2-(cis-3-fluoro-4-methoxypiperidin-1-yl)pyrimidin-4-yl)amino)pyridin-3-yl)(3-((methylsulfonyl)meth-yl)azetidin-1-yl)methanone]: the half-maximal inhibitory concentration (IC50) in assay [1] lay in the range of 50 to 500 nM. The GI50 in assay [2] is 500 to 5000 nM.
In the case of `COC(=O)c1cnc2cc1N[C@@H](C)CCOc1c(cnn1C)-c1nccc(n1)N2` [Example 102, methyl(S)-1^1,6-dimethyl-1^1H-9-oxa-3,5-diaza-2(2,4)-pyrimidina-4(2,4)-pyridina-1(4,5)-pyrazolacyclo-nonaphane-4^5-carboxylate], the IC50 in assay [1] was under 50 nM. In assay [2], the GI50 is under 500 nM.
Turning to `CC(C)Nc1cc(Nc2ccnc(N3CCN(S(C)(=O)=O)CC3)n2)ncc1C(=O)N1CC(CS(C)(=O)=O)C1` [Example 44, (4-(isopropylamino)-6-((2-(4-(methylsulfonyl)piper-azin-1-yl)pyrimidin-4-yl)amino)pyridin-3-yl)(3-((methylsulfonyl)meth-yl)azetidin-1-yl)methanone], the IC50 in assay [1] was 50 to 500 nM.
Still for that read-out and setting: the same measure for `CC(C)Nc1cc(Nc2ccnc(-c3cnn(S(=O)(=O)C4CC4)c3)n2)ncc1C(=O)NC1CCN(S(C)(=O)=O)CC1` [Example 69, 6-((2-(1-(cyclopropylsulfonyl)-1H-pyrazol-4-yl)pyrimidin-4-yl)amino)-4-(isopropylamino)-N-(1-(methylsulfonyl)piper-idin-4-yl)nicotinamide]: under 50 nM.

Source of the values: patent publication US20250345329A1, “HETEROARYL DERIVATIVE COMPOUND AND USES THEREOF” (VORONOI, INC., priority 2022, published 2025).
